Experimental data as given in ChEMBL document CHEMBL1201862, “PubChem BioAssay data set” (2004).
Each block holds one compound with its values, some of them ahead of it. Calls of active or inactive are those of the source.

Assays:
[1] = StAR promoter reporter inhibition counter-screen, dose response, counter-screen for LRH-1 inverse agonist project, cell-based, luminescence, luciferase reporter (AID 651969); type: functional
[2] = biological target: Steroidogenic factor 1 (Homo sapiens, UniProt Q13285); experiment: Counterscreen for inverse agonists of the liver receptor homolog-1 (LRH-1; NR5A2): Luminescence-based cell-based high throughput dose response assay to identify inverse agonists of the Steroidogenic Factor 1 Nuclear Receptor (SF1; NR5A1).; type: functional
Chain of Steroidogenic factor 1 (Q13285 whole entry): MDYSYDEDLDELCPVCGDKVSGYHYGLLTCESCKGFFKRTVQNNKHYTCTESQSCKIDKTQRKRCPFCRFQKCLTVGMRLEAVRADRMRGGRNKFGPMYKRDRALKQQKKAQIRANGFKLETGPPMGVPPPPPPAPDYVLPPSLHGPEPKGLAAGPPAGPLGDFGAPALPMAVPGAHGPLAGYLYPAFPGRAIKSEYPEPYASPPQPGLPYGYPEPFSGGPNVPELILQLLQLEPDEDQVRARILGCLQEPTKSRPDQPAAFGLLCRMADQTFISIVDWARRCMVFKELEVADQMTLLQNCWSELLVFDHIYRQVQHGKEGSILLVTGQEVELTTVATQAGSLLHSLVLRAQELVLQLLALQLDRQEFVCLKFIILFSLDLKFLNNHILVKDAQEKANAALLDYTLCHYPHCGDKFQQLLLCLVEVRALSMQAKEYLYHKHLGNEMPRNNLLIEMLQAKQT

[3] = biological target: Nuclear receptor subfamily 5 group A member 2 (Homo sapiens, UniProt O00482); type: functional, cell-based;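 further: HEK293T cells transfected with LRH-1 and a StAR promoter luciferase reporter; potency for inhibitors that lower LRH-1 driven reporter light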
Chain of Nuclear receptor subfamily 5 group A member 2 (O00482 whole entry): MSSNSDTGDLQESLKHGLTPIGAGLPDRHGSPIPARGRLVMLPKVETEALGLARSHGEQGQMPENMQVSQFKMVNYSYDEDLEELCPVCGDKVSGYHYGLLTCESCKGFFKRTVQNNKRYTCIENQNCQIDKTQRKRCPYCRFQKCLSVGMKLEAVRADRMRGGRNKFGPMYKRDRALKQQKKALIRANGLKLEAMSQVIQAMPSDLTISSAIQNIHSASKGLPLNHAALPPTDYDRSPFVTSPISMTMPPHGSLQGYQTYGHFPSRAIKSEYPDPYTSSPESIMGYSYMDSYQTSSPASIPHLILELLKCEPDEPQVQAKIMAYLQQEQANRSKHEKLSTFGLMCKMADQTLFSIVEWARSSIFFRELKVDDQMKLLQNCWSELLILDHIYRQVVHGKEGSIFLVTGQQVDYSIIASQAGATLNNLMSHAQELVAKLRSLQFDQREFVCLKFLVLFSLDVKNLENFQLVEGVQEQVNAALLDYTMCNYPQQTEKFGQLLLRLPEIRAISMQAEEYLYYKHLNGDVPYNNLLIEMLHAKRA

[4] = cells; type: functional, cell-based; details: HEK-CNG
[5] = biological target: T1, Galanin receptor type 3 (Homo sapiens, UniProt O60755); experiment: Fluorescence-based cell-based primary high throughput dose response assay to identify antagonists of the Galanin Receptor 3 (GalR3).; type: functional
T1 sequence (O60755 whole entry): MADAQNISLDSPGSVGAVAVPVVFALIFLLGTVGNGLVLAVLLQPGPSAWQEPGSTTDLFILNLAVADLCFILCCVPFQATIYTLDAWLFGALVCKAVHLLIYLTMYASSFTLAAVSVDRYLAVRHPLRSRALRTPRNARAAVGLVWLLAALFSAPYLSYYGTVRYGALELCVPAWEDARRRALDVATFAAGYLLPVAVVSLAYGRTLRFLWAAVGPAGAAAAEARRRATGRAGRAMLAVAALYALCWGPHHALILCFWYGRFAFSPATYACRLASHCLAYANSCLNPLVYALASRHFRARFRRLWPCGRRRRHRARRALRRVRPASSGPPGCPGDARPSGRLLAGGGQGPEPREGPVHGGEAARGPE

[6] = off-target signal loss in HeLa-CEM21 co-culture – HeLa F-luc CTL cells, cherry-picked, counter-screen for HIV-1 Env fusion inhibitor project, dose response (AID 652040); type: functional, cell-based;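 further: potency for signal decrease marking cytotoxic or nonspecific inhibition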
[7] = CEM21 lymphoblast cell cytotoxicity, dose response, cytotoxicity control for viral fusion inhibitor project, CellTiter-Glo luminescence, cherry-picked (AID 652042); type: functional, cell-based;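 further: potency for signal decrease meaning cytotoxicity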
[8] = ZM109 Env clade C HIV-1 fusion inhibitors, dose response, HeLa effector, CEM target cells, luciferase, cherry-pick (AID 652058); type: functional, cell-based
[9] = inhibitors of clade B AD8 Env fusion, dose response, cell-based, cherry-pick (AID 652062); type: functional;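 further: luciferase signal from cell-cell fusion driven by HIV-1 clade B AD8 Env; potency is for inhibitors of fusion seen as a drop in luminescence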
[10] = inhibitors of HIV Env-driven cell fusion, dose response, cherry-pick (AID 652057); type: functional, cell-based
[11] = Fluorescence-based cell-based high throughput dose response assay for inhibitors of the interaction of nucleotide-binding oligomerization domain containing 2 (NOD2) and the receptor-interacting serine-threonine kinase 2 (RIPK2).; type: functional; details: Homo sapiens
[12] = biological target: T2, Microphthalmia-associated transcription factor (Homo sapiens, UniProt O75030); experiment: TRPM1 promoter luciferase signal decrease, dose response, MITF inhibitor project, cell-based, SK-MEL-5, cherry-picked, set 3 (AID 493073); type: functional
T2 sequence (O75030 whole entry): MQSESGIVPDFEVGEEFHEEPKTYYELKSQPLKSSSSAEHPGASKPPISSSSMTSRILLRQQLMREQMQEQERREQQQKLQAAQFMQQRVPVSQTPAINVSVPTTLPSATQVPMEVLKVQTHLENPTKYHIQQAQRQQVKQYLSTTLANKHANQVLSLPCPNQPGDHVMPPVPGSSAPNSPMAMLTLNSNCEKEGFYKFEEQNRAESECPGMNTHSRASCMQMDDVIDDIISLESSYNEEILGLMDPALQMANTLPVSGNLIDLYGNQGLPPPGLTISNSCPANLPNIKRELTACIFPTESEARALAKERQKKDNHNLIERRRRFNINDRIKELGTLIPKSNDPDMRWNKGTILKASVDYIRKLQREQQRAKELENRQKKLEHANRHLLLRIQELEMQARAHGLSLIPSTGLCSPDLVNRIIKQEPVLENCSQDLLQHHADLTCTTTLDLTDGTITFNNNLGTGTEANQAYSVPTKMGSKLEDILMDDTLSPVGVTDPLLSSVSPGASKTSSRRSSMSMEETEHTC

[13] = biological target: Large T antigen (Simian virus 40, UniProt P03070); type: functional, Betapolyomavirus macacae;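 further: Confirmatory-stage PubChem screen for compounds that inhibit SV40 T antigen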
Chain of Large T antigen (P03070 whole entry): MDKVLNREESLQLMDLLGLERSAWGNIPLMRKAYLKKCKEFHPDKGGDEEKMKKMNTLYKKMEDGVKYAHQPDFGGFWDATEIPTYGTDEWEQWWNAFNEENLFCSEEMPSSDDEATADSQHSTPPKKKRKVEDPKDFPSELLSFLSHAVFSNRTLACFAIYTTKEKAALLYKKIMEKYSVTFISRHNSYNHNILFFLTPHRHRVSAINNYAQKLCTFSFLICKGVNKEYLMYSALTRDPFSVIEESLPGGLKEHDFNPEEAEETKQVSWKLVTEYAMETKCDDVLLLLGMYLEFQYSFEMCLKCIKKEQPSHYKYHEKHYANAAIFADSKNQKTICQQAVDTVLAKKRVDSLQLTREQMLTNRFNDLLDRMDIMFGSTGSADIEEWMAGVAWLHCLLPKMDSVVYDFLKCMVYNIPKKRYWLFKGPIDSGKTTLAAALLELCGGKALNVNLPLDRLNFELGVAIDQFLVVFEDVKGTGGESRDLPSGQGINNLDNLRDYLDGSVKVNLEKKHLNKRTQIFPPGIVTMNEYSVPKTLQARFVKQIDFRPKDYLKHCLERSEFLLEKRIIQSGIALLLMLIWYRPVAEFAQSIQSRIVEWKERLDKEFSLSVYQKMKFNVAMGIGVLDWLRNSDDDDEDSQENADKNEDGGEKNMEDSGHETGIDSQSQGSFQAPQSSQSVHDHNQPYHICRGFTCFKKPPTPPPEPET

[14] = biological target: T3, Corticotropin-releasing factor receptor 2/Corticotropin-releasing factor-binding protein (Homo sapiens, UniProt P24387+Q13324); experiment: Dose Response confirmation of uHTS hits for small molecule antagonists of the CRF-binding protein and CRF-R2 receptor complex.; type: functional; details: read-out: IC50_Mean
T3 sequence (Q13324 whole entry): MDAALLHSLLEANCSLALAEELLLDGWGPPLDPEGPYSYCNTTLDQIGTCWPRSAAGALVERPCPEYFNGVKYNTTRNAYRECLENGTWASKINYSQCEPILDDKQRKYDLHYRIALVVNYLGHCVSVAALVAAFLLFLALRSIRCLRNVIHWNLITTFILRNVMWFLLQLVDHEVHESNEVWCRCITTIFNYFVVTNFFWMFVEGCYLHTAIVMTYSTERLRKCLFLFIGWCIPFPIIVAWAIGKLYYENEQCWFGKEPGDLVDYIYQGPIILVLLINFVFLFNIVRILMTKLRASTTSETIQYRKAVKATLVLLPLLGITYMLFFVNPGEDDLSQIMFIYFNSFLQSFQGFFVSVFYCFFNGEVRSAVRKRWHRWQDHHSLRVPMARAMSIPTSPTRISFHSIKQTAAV
T3 sequence (P24387 whole entry): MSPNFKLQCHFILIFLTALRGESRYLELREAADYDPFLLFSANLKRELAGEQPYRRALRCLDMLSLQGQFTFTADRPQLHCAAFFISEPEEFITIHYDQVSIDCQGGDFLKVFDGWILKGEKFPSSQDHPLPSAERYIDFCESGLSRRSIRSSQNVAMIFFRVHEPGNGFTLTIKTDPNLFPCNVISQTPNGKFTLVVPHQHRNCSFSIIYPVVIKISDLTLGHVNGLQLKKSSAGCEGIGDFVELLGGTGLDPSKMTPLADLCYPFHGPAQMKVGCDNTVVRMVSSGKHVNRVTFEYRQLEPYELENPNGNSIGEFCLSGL

[15] = biological target: T3, Corticotropin-releasing factor receptor 2/Corticotropin-releasing factor-binding protein; experiment: activators of CRF receptor 2 with binding protein – uHTS hits, confirmation (AID 602473); type: functional; details: read-out: EC50_Mean
[16] = CRF-BP/CRF-R2 complex antagonists, dose response, cell-based, uHTS hits, 384-well (AID 651639); type: functional, Homo sapiens; details: read-out: IC50_Mean
[17] = test system: Streptococcus sp. 'group A'; experiment: growth inhibition of control SK(-) GAS strain, dose response, counter-screen for streptokinase expression inhibitor project, luminescence, kanamycin, BacTiterGlo, confirmation (AID 1900); type: functional, organism-based
[18] = test system: Streptococcus; experiment: Group A Streptococcus viability loss, dose response, counter-screen for streptokinase expression inhibitor project, luminescence, BacTiterGlo (AID 1915); type: functional, organism-based;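 further: potency for reduction of bacterial viability or growth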
[19] = biological target: T4, Leucine aminopeptidase (Plasmodium falciparum 3D7, UniProt Q8IL11); experiment: P. falciparum M17LAP inhibitors, primary screen, biochemical, fluorogenic H-Leu-NHMec substrate, 1536-well (AID 1619); type: functional
T4 sequence (Q8IL11 whole entry): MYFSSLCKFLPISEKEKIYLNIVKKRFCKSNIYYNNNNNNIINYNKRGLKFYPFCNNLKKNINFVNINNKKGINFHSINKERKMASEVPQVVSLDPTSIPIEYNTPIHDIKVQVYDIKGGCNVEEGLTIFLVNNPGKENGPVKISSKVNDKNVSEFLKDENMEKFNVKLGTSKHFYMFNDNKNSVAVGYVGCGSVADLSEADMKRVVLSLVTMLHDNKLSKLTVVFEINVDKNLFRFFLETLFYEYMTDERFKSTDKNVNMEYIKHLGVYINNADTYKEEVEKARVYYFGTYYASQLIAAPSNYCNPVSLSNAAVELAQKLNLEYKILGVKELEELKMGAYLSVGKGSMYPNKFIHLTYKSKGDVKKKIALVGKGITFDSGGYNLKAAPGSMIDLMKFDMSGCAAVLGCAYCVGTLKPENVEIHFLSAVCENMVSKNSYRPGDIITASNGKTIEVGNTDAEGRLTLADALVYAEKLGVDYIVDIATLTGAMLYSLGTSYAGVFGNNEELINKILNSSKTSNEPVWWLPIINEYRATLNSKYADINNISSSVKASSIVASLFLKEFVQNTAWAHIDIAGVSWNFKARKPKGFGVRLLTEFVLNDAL

Structure (SMILES): CCc1cc(=O)oc2c(C)c(OCC(=O)NCCCN3CCCC3=O)ccc12
IC50 [1]: 35.9 µM (inactive) | IC50 [2]: 35.9 µM (inactive) | IC50 [3]: 35.9 µM (inactive)

Structure (SMILES): O=C(Nc1ccc(Oc2ccccc2)cc1)c1csc(COCCO)n1
EC50 [4]: > 29.9 µM (inactive) | IC50 [5]: 1.39 µM (active)

Structure (SMILES): Cc1ccccc1S(=O)(=O)N(C)C[C@@H]1OCc2ccccc2-c2c(n(C)c3ccccc23)C(=O)N([C@H](C)CO)C[C@@H]1C
AC50 [6]: 1.66 µM (active) | AC50 [7]: 31.6 µM (active) | AC50 [8]: 1.75 µM (active) | AC50 [9]: 3.16 µM (active) | AC50 [10]: 1.37 µM (active)

Structure (SMILES): O=[N+]([O-])/C=C\c1ccc(N2CCOCC2)cc1
IC50 [11]: 4.32 µM (active) | AC50 [12]: 13.6 µM (active) | IC50 [13]: > 100 µM (active)

IC50 [14]: < 0.368 µM (active) | EC50 [15]: > 53 µM (inactive) | IC50 [16]: > 20 µM (inactive)
Structure (SMILES): COc1cccc(NC(=O)c2cc(S(=O)(=O)N3CCc4ccccc43)cn2C)c1

Structure (SMILES): O=[N+]([O-])c1ccc(-c2cc(O)n3nc(-c4ccc(F)cc4)cc3n2)cc1
EC50 [17]: 4.2 µM (active) | IC50 [14]: 27.4 µM (active) | EC50 [15]: > 53 µM (inactive) | EC50 [18]: 6.44 µM (active) | IC50 [16]: 12.9 µM (active)

IC50 [2]: 0.599 µM (active) | IC50 [19]: 10.2 µM (active) | IC50 [3]: 1.54 µM (active)
Structure (SMILES): CCc1c(C)nc(SCC(=O)Nc2ccc3c(c2)OCCO3)[nH]c1=O

Structure (SMILES): Cc1ccc(-c2nn3c(C)nnc3s2)cc1NC(=O)c1ccco1
IC50 [1]: 35.9 µM (inactive) | IC50 [2]: 8.56 µM (active) | IC50 [3]: 18.3 µM (inactive)

Structure (SMILES): CCc1c(C)nc(SCC(=O)Nc2ccc3c(c2)OCCO3)nc1O
IC50 [1]: 35.9 µM (inactive)
